Tests used:
Assay in all cases: radiometric filter-binding kinase assay
CDK2 CCNA2 (human) = CDK2 CCNA2 (human) (UniProt P20248+P24941)
MAP2K1 (human) = MAP2K1 (human) (UniProt Q02750)
EPHA4 (human) = EPHA4 (human) (UniProt P54764)
MAPK1 (human) = MAPK1 (human) (UniProt P28482)
INSRR (human) = INSRR (human) (UniProt P14616)
PRKAA1 or PRKAA2 (rat) = settings: accession and sequence are those of the human protein
SRC (human) = SRC (human) (UniProt P12931)
MKNK2 (human) = MKNK2 (human) (UniProt Q9HBH9)
PRKACA (human) = PRKACA (human) (UniProt P17612)
CHEK2 (human) = CHEK2 (human) (UniProt O96017)
Sequence of CHEK2 (human) (O96017 whole entry, looked up): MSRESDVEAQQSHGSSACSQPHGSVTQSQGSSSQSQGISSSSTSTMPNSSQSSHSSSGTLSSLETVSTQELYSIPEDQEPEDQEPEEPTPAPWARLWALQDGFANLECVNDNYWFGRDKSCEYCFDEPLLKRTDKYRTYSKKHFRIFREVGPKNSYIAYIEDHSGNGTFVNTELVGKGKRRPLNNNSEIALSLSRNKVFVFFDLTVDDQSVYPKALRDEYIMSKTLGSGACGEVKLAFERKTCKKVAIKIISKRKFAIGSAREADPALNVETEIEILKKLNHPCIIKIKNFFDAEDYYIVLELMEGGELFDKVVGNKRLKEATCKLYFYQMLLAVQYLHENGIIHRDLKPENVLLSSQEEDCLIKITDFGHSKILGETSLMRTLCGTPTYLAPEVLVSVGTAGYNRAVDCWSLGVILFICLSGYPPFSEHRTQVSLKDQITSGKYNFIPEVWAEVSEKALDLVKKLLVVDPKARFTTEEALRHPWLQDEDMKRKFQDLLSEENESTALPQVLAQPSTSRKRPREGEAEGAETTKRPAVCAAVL

PIM2 (human) = PIM2 (human) (UniProt Q9P1W9)
RPS6KA1 KD1 KD2 (human) = RPS6KA1 KD1 KD2 (human) (UniProt Q15418)
PLK1 (human) = PLK1 (human) (UniProt P53350)
BTK (human) = BTK (human) (UniProt Q06187)
IKBKE (human) = IKBKE (human) (UniProt Q14164)
Sequence of IKBKE (human) (Q14164 whole entry, looked up): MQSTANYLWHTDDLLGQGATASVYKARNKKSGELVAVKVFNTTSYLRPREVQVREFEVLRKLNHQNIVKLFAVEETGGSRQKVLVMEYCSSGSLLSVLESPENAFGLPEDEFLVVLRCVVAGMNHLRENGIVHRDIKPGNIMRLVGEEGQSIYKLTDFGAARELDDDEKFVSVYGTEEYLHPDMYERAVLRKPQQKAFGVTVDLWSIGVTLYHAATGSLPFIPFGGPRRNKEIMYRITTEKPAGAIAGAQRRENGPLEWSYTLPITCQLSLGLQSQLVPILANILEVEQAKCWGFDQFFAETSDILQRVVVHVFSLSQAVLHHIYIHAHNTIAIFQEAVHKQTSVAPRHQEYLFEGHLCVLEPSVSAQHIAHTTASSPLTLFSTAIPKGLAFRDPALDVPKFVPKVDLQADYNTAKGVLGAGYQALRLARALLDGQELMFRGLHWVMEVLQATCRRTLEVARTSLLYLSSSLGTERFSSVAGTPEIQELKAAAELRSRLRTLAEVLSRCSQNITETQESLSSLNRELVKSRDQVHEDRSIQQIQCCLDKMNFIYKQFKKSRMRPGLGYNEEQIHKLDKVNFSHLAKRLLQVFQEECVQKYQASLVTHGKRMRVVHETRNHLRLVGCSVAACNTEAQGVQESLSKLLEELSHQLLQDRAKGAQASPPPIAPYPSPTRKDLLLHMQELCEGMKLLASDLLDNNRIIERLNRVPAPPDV

NEK2 (human) = NEK2 (human) (UniProt P51955)
RPS6KA5 KD1 KD2 (human) = RPS6KA5 KD1 KD2 (human) (UniProt O75582)
Sequence of RPS6KA5 KD1 KD2 (human) (O75582 whole entry, looked up): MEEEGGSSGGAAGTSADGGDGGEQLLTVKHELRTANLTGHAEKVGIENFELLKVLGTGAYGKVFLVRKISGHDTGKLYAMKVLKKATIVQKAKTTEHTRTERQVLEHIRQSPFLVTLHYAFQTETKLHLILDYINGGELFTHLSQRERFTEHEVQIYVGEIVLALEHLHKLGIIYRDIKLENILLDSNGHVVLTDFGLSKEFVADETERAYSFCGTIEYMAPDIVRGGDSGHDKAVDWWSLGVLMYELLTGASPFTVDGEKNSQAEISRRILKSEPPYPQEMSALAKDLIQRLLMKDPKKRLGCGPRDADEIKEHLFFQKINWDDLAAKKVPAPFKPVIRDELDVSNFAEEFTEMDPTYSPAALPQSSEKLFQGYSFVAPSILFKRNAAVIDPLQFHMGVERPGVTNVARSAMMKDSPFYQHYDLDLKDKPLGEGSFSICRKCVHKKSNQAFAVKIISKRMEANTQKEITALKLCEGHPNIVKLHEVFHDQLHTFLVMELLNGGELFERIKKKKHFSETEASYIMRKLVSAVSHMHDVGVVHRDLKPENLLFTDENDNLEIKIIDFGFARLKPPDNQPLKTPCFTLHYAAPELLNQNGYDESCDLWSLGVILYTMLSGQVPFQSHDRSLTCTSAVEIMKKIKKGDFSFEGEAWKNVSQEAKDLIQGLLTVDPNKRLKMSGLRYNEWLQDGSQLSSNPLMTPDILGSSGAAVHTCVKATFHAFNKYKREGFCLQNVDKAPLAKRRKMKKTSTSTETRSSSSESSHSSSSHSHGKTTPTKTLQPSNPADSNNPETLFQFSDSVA

SYK (human) = SYK (human) (UniProt P43405)
PAK7 (human) = PAK7 (human) (UniProt Q9P286)
[1] = system: AKT2 (human), P31751 [S474D]
RIPK2 (human) = RIPK2 (human) (UniProt O43353)
CSNK1D (human) = CSNK1D (human) (UniProt P48730)
MAPK14 (human) = MAPK14 (human) (UniProt Q16539)
NEK6 (human) = NEK6 (human) (UniProt Q9HC98)
MAPK15 (human) = MAPK15 (human) (UniProt Q8TD08)
IKBKB (human) = IKBKB (human) (UniProt O14920)
MAPK3 (human) = MAPK3 (human) (UniProt P27361)
MAPKAPK3 (human) = MAPKAPK3 (human) (UniProt Q16644)
Sequence of MAPKAPK3 (human) (Q16644 whole entry, looked up): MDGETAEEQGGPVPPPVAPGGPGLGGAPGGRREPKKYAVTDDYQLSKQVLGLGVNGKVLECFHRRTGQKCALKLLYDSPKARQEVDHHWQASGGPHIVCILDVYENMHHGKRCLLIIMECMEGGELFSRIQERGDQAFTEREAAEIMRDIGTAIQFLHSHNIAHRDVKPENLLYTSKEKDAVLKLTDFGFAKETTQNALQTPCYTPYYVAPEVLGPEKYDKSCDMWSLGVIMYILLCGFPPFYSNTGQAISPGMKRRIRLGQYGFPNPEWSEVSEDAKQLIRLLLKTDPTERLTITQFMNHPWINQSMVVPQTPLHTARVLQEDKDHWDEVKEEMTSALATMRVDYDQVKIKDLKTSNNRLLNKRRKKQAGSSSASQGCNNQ

TTK (human) = TTK (human) (UniProt P33981)
Sequence of TTK (human) (P33981 whole entry, looked up): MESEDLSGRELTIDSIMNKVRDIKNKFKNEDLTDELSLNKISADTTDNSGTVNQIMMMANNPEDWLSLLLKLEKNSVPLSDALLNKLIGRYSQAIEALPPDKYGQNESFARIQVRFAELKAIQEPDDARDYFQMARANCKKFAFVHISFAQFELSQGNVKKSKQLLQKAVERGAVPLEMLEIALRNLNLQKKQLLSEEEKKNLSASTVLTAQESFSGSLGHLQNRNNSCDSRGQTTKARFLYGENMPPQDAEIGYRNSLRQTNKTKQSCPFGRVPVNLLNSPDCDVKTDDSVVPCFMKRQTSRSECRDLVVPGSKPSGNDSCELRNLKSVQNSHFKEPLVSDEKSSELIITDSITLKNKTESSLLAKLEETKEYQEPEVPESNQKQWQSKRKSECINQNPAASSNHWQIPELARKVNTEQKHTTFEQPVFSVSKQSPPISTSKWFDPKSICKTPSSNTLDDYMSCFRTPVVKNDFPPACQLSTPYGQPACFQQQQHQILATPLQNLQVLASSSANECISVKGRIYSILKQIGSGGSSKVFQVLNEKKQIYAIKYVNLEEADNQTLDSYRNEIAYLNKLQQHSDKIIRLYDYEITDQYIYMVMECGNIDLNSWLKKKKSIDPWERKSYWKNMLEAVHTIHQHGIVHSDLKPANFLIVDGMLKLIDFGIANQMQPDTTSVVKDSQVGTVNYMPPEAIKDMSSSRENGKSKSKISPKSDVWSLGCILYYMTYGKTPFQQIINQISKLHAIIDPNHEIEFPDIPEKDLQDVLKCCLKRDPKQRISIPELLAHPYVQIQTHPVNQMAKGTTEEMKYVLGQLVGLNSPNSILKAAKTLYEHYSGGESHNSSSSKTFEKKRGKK

EPHB1 (human) = EPHB1 (human) (UniProt P54762)
EPHB4 (human) = EPHB4 (human) (UniProt P54760)
[2] = system: RPS6KB1 (human), P23443 [T412E]
FLT1 (human) = FLT1 (human) (UniProt P17948)
RPS6KA3 KD1 KD2 (human) = RPS6KA3 KD1 KD2 (human) (UniProt P51812)
Sequence of RPS6KA3 KD1 KD2 (human) (P51812 whole entry, looked up): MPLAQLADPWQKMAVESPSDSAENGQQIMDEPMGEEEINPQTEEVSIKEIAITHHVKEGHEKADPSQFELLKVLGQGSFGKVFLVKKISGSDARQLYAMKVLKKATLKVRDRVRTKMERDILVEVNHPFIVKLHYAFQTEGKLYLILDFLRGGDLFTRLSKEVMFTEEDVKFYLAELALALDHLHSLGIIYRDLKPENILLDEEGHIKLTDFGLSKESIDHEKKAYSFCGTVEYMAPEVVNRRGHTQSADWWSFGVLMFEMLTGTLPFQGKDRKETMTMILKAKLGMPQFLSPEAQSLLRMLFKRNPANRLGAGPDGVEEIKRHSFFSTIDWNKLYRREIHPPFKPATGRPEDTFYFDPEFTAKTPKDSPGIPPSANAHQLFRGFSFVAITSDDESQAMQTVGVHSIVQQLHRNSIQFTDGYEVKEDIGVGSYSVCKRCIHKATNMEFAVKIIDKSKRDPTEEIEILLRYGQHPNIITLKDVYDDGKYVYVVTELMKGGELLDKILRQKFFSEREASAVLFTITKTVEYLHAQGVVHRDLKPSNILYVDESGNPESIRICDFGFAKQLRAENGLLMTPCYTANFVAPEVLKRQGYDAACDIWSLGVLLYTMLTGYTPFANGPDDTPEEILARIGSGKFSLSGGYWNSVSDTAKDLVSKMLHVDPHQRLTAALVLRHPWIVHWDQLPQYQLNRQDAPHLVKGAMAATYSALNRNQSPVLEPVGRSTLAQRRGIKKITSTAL

CSK (human) = CSK (human) (UniProt P41240)

Sequence of MAPK1 (human) (P28482 whole entry, looked up): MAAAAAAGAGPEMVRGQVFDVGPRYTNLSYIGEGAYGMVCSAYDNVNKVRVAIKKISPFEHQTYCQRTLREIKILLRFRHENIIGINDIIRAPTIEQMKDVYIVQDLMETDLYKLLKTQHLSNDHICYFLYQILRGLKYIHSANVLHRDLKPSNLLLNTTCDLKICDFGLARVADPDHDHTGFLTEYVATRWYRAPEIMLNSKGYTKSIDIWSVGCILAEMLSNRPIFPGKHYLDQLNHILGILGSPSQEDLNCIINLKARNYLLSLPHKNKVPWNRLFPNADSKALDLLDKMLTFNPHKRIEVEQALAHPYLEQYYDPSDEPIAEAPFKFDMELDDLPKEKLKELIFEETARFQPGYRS
Sequence of MAP2K1 (human) (Q02750 whole entry, looked up): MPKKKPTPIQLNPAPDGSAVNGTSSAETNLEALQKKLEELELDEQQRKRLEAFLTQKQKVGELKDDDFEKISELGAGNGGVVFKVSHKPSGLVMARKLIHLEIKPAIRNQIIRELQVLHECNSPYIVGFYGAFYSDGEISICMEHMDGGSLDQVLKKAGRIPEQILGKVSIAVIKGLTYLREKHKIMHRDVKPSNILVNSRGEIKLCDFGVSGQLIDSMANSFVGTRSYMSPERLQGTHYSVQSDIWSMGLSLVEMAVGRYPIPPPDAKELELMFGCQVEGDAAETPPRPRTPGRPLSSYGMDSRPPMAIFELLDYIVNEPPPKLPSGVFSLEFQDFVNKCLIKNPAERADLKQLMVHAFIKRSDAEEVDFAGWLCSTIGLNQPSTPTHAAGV

Q: With c1ccc2c(-c3cnn4cc(-c5ccc(N6CCNCC6)cc5)cnc34)ccnc2c1 as the compound, how does the residual activity (CDK2 CCNA2 (human); compound 0.1 µM) read?
A: The residual activity was 84%.

Q: What about the residual activity (CDK2 CCNA2 (human); compound 1.0 µM) of the same compound?
A: Its residual activity is 84%.

Q: And the residual activity (CDK2 CCNA2 (human); compound 10.0 µM)?
A: The residual activity was 34%.

Q: And the residual activity (MAP2K1 (human); compound 0.1 µM)?
A: Its residual activity is 98%.

Q: What about the residual activity (MAP2K1 (human); compound 1.0 µM) of the same compound?
A: The residual activity was 93%.

Q: What about the residual activity (MAP2K1 (human); compound 10.0 µM) of the same compound?
A: Its residual activity is 67%.

Q: And the residual activity (EPHA4 (human); compound 0.1 µM)?
A: Its residual activity is 84%.

Q: What about the residual activity (EPHA4 (human); compound 1.0 µM) of the same compound?
A: The residual activity was 83%.

Q: And the residual activity (EPHA4 (human); compound 10.0 µM)?
A: The residual activity was 57%.

Q: And the residual activity (MAPK1 (human); compound 0.1 µM)?
A: The residual activity was 89%.

Q: What about the residual activity (MAPK1 (human); compound 1.0 µM) of the same compound?
A: Its residual activity is 89%.

Q: And the residual activity (MAPK1 (human); compound 10.0 µM)?
A: The residual activity was 107%.

Q: And the residual activity (INSRR (human); compound 0.1 µM)?
A: The residual activity was 82%.

Q: What about the residual activity (INSRR (human); compound 1.0 µM) of the same compound?
A: Its residual activity is 68%.

Q: And the residual activity (INSRR (human); compound 10.0 µM)?
A: Its residual activity is 37%.

Q: What about the residual activity (PRKAA1 or PRKAA2 (rat); compound 0.1 µM) of the same compound?
A: Its residual activity is 96%.

Q: And the residual activity (PRKAA1 or PRKAA2 (rat); compound 1.0 µM)?
A: Its residual activity is 59%.

Q: And the residual activity (PRKAA1 or PRKAA2 (rat); compound 10.0 µM)?
A: The residual activity was 18%.

Q: And the residual activity (SRC (human); compound 1.0 µM)?
A: The residual activity was 52%.

Q: What about the residual activity (SRC (human); compound 10.0 µM) of the same compound?
A: The residual activity was 16%.

Q: And the residual activity (MKNK2 (human); compound 0.1 µM)?
A: Its residual activity is 90%.

Q: And the residual activity (MKNK2 (human); compound 1.0 µM)?
A: The residual activity was 60%.

Q: And the residual activity (MKNK2 (human); compound 10.0 µM)?
A: Its residual activity is 34%.

Q: What about the residual activity (PRKACA (human); compound 0.1 µM) of the same compound?
A: Its residual activity is 99%.

Q: What about the residual activity (PRKACA (human); compound 1.0 µM) of the same compound?
A: The residual activity was 101%.

Q: What about the residual activity (PRKACA (human); compound 10.0 µM) of the same compound?
A: The residual activity was 94%.

Q: What about the residual activity (CHEK2 (human); compound 0.1 µM) of the same compound?
A: Its residual activity is 99%.

Q: And the residual activity (CHEK2 (human); compound 1.0 µM)?
A: The residual activity was 103%.

Q: What about the residual activity (CHEK2 (human); compound 10.0 µM) of the same compound?
A: The residual activity was 59%.

Q: And the residual activity (PIM2 (human); compound 0.1 µM)?
A: The residual activity was 98%.

Q: What about the residual activity (PIM2 (human); compound 1.0 µM) of the same compound?
A: Its residual activity is 104%.

Q: What about the residual activity (PIM2 (human); compound 10.0 µM) of the same compound?
A: Its residual activity is 92%.

Q: What about the residual activity (RPS6KA1 KD1 KD2 (human); compound 0.1 µM) of the same compound?
A: The residual activity was 86%.

Q: And the residual activity (RPS6KA1 KD1 KD2 (human); compound 1.0 µM)?
A: The residual activity was 79%.

Q: What about the residual activity (RPS6KA1 KD1 KD2 (human); compound 10.0 µM) of the same compound?
A: The residual activity was 29%.

Q: And the residual activity (PLK1 (human); compound 0.1 µM)?
A: Its residual activity is 97%.

Q: What about the residual activity (PLK1 (human); compound 1.0 µM) of the same compound?
A: Its residual activity is 100%.

Q: What about the residual activity (PLK1 (human); compound 10.0 µM) of the same compound?
A: Its residual activity is 91%.

Q: And the residual activity (BTK (human); compound 0.1 µM)?
A: Its residual activity is 111%.

Q: And the residual activity (BTK (human); compound 1.0 µM)?
A: The residual activity was 94%.

Q: And the residual activity (BTK (human); compound 10.0 µM)?
A: Its residual activity is 52%.

Q: What about the residual activity (IKBKE (human); compound 0.1 µM) of the same compound?
A: The residual activity was 87%.

Q: What about the residual activity (IKBKE (human); compound 1.0 µM) of the same compound?
A: The residual activity was 89%.

Q: And the residual activity (IKBKE (human); compound 10.0 µM)?
A: The residual activity was 56%.

Q: And the residual activity (NEK2 (human); compound 0.1 µM)?
A: The residual activity was 118%.

Q: And the residual activity (NEK2 (human); compound 1.0 µM)?
A: Its residual activity is 119%.

Q: And the residual activity (NEK2 (human); compound 10.0 µM)?
A: Its residual activity is 79%.

Q: And the residual activity (RPS6KA5 KD1 KD2 (human); compound 0.1 µM)?
A: The residual activity was 91%.

Q: What about the residual activity (RPS6KA5 KD1 KD2 (human); compound 1.0 µM) of the same compound?
A: The residual activity was 83%.

Q: What about the residual activity (RPS6KA5 KD1 KD2 (human); compound 10.0 µM) of the same compound?
A: The residual activity was 87%.

Q: And the residual activity (SYK (human); compound 0.1 µM)?
A: The residual activity was 82%.

Q: And the residual activity (SYK (human); compound 1.0 µM)?
A: Its residual activity is 80%.

Q: What about the residual activity (SYK (human); compound 10.0 µM) of the same compound?
A: The residual activity was 36%.

Q: And the residual activity (PAK7 (human); compound 0.1 µM)?
A: Its residual activity is 95%.

Q: And the residual activity (PAK7 (human); compound 1.0 µM)?
A: Its residual activity is 82%.

Q: And the residual activity (PAK7 (human); compound 10.0 µM)?
A: Its residual activity is 72%.

Q: And the residual activity ([1]; compound 0.1 µM)?
A: The residual activity was 77%.

Q: And the residual activity ([1]; compound 1.0 µM)?
A: The residual activity was 91%.

Q: What about the residual activity ([1]; compound 10.0 µM) of the same compound?
A: Its residual activity is 58%.

Q: What about the residual activity (RIPK2 (human); compound 0.1 µM) of the same compound?
A: Its residual activity is 52%.

Q: And the residual activity (RIPK2 (human); compound 1.0 µM)?
A: Its residual activity is 2%.

Q: What about the residual activity (RIPK2 (human); compound 10.0 µM) of the same compound?
A: Its residual activity is 3%.

Q: And the residual activity (CSNK1D (human); compound 0.1 µM)?
A: The residual activity was 91%.

Q: What about the residual activity (CSNK1D (human); compound 1.0 µM) of the same compound?
A: The residual activity was 69%.

Q: What about the residual activity (CSNK1D (human); compound 10.0 µM) of the same compound?
A: Its residual activity is 22%.

Q: What about the residual activity (MAPK14 (human); compound 0.1 µM) of the same compound?
A: Its residual activity is 78%.

Q: And the residual activity (MAPK14 (human); compound 1.0 µM)?
A: Its residual activity is 84%.

Q: And the residual activity (MAPK14 (human); compound 10.0 µM)?
A: Its residual activity is 75%.

Q: And the residual activity (NEK6 (human); compound 0.1 µM)?
A: The residual activity was 80%.

Q: What about the residual activity (NEK6 (human); compound 1.0 µM) of the same compound?
A: Its residual activity is 83%.

Q: And the residual activity (NEK6 (human); compound 10.0 µM)?
A: Its residual activity is 88%.

Q: What about the residual activity (MAPK15 (human); compound 0.1 µM) of the same compound?
A: Its residual activity is 87%.

Q: And the residual activity (MAPK15 (human); compound 1.0 µM)?
A: The residual activity was 49%.

Q: And the residual activity (MAPK15 (human); compound 10.0 µM)?
A: Its residual activity is 11%.

Q: What about the residual activity (IKBKB (human); compound 1.0 µM) of the same compound?
A: Its residual activity is 98%.

Q: And the residual activity (IKBKB (human); compound 10.0 µM)?
A: The residual activity was 83%.

Q: What about the residual activity (MAPK3 (human); compound 0.1 µM) of the same compound?
A: The residual activity was 89%.

Q: What about the residual activity (MAPK3 (human); compound 1.0 µM) of the same compound?
A: Its residual activity is 97%.

Q: What about the residual activity (MAPK3 (human); compound 10.0 µM) of the same compound?
A: The residual activity was 90%.

Q: And the residual activity (MAPKAPK3 (human); compound 0.1 µM)?
A: The residual activity was 80%.

Q: What about the residual activity (MAPKAPK3 (human); compound 1.0 µM) of the same compound?
A: Its residual activity is 79%.

Q: What about the residual activity (MAPKAPK3 (human); compound 10.0 µM) of the same compound?
A: The residual activity was 86%.

Q: And the residual activity (TTK (human); compound 0.1 µM)?
A: Its residual activity is 89%.

Q: What about the residual activity (TTK (human); compound 1.0 µM) of the same compound?
A: Its residual activity is 101%.

Q: And the residual activity (TTK (human); compound 10.0 µM)?
A: The residual activity was 61%.

Q: And the residual activity (EPHB1 (human); compound 0.1 µM)?
A: The residual activity was 117%.

Q: And the residual activity (EPHB1 (human); compound 10.0 µM)?
A: The residual activity was 100%.

Q: What about the residual activity (EPHB4 (human); compound 0.1 µM) of the same compound?
A: Its residual activity is 96%.

Q: What about the residual activity (EPHB4 (human); compound 1.0 µM) of the same compound?
A: Its residual activity is 89%.

Q: And the residual activity (EPHB4 (human); compound 10.0 µM)?
A: The residual activity was 46%.

Q: What about the residual activity ([2]; compound 1.0 µM) of the same compound?
A: Its residual activity is 92%.

Q: And the residual activity ([2]; compound 10.0 µM)?
A: Its residual activity is 84%.

Q: And the residual activity (FLT1 (human); compound 0.1 µM)?
A: The residual activity was 48%.

Q: And the residual activity (FLT1 (human); compound 10.0 µM)?
A: Its residual activity is 0%.

Q: What about the residual activity (RPS6KA3 KD1 KD2 (human); compound 0.1 µM) of the same compound?
A: The residual activity was 73%.

Q: And the residual activity (RPS6KA3 KD1 KD2 (human); compound 1.0 µM)?
A: Its residual activity is 69%.

Q: And the residual activity (RPS6KA3 KD1 KD2 (human); compound 10.0 µM)?
A: Its residual activity is 57%.

Q: What about the residual activity (CSK (human); compound 0.1 µM) of the same compound?
A: Its residual activity is 95%.

Q: What about the residual activity (CSK (human); compound 1.0 µM) of the same compound?
A: Its residual activity is 103%.

Q: And the residual activity (CSK (human); compound 10.0 µM)?
A: Its residual activity is 72%.

— the kinase profiling compilation of Christmann-Franck et al. (2016)
